Data on five compounds can be found in ChEMBL document CHEMBL4619778, “Oligopeptides as Neuropeptide Y Y4 Receptor Ligands: Identification of a High-Affinity Tetrapeptide Agonist and a Hexapeptide Antagonist” (J Med Chem, 2020).

Square brackets hold non-standard residues; d marks the D form. Peptide text beside a SMILES is read from it. ξ: configuration not given here. ξOrn = NCCCC(N)C(=O)O A value given as a limit tells only on which side of the number the result lay.

For assay [1], the target named is T1, Neuropeptide Y receptor type 4 (Homo sapiens, UniProt P50391). Description: Displacement of [3H]UR-KK200 from human Y4 receptor expressed in CHO cells co-expressing Gqi5-mtAEQ measured after 90 mins by scintillation counting analysis. It counts as cell-based. A general note: Displacement assays read how much labelled ligand stays bound in the presence of the test substance.
T1 sequence (P50391 whole entry): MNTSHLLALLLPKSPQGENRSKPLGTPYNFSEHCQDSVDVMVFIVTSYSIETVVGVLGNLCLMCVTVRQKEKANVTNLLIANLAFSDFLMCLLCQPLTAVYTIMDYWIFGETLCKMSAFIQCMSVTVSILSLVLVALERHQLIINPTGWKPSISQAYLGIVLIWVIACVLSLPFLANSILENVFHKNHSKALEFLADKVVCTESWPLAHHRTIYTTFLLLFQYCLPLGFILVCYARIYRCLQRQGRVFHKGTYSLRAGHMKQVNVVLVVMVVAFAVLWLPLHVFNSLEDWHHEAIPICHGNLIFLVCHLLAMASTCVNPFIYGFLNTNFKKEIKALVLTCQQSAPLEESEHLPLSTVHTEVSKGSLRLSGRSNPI

Assay [2] concerns the target T1, Neuropeptide Y receptor type 4. Description: Antagonist activity at human Y4 receptor expressed in CHO cells co-expressing Gqi5-mtAEQ assessed as inhibition of hPP-induced intracellular calcium mobilization preincubated for 15 mins followed by hPP addition and measured for 43 secs in presence of coelenterazine by aequorin-reporter gene based luminescence assay. It counts as functional, cell-based. For orientation: A change in cytosolic calcium serves as a functional read-out for many receptors and channels.

For assay [3] the target is unchanged. Description: Antagonist activity at human Y4R expressed in HEK293T cells co-expressing ARRB2 assessed as inhibition of hPP-induced beta-arrestin2 recruitment preincubated for 20 mins followed by hPP addition and measured for 40 mins by D-luciferin based luminescence assay. The conditions noted are these: HEK-293T. It counts as cell-based.
The target is the same in assay [4]. The assay can be described thus: Antagonist activity at human Y4R expressed in HEK293T cells co-expressing ARRB1 assessed as inhibition of hPP-induced beta-arrestin1 recruitment preincubated for 20 mins followed by hPP addition and measured for 40 mins by D-luciferin based luminescence assay. The conditions noted are these: HEK-293T. It counts as cell-based. In general terms: Arrestin recruitment assays detect the binding of arrestin to an activated receptor.

The target in assay [5] is T2, Neuropeptide Y receptor type 1 (Homo sapiens, UniProt P25929).
T2 sequence (P25929 whole entry): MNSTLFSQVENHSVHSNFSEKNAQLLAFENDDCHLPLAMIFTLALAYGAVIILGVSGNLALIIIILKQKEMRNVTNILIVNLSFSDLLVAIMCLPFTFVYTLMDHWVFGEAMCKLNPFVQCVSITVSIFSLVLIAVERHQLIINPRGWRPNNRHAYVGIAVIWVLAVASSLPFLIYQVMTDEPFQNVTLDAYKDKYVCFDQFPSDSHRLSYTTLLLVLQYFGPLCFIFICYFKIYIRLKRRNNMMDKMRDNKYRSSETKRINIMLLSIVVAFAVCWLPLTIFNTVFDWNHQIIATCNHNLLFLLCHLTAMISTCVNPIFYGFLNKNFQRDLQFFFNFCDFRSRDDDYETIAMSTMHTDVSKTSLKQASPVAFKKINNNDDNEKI
Description: Displacement of [3H]UR-MK299 from Y1 receptor in human SK-N-MC cells. It counts as cell-based.

Assay [6] is filed under the species Homo sapiens. The assay can be described thus: Selectivity ratio of Ki for displacement of [3H]propionyl-pNPY from human Y2 receptor expressed in CHO cells to Ki for displacement of [3H]UR-KK200 from human Y4 receptor expressed in CHO cells co-expressing Gqi5-mtAEQ. It counts as cell-based.
The target of assay [7] is T3, Neuropeptide Y receptor type 2 (Homo sapiens, UniProt P49146).
T3 sequence (P49146 whole entry): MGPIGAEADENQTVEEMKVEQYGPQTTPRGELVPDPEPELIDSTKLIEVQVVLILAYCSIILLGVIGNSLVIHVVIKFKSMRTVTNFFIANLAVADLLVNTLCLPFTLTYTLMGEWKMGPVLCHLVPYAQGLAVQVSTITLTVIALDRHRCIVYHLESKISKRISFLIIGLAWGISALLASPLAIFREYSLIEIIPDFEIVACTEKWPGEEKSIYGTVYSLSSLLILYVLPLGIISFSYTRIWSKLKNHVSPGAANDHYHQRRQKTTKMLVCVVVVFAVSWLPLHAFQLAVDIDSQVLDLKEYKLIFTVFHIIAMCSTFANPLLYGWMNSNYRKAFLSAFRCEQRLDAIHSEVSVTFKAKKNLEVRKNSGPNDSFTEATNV
The assay can be described thus: Displacement of [3H]propionyl-pNPY from human Y2 receptor expressed in CHO cells measured after 2 hrs by microbeta liquid scintillation counting analysis. It counts as cell-based.

Assay [8] is filed under the species Homo sapiens. Description: Selectivity ratio of Ki for displacement of [3H]UR-MK299 from Y1 receptor in human SK-N-MC cells to Ki for displacement of [3H]UR-KK200 from human Y4 receptor expressed in CHO cells co-expressing Gqi5-mtAEQ. It counts as cell-based.
In assay [9] the target is T4, Neuropeptide Y receptor type 5 (Homo sapiens, UniProt Q15761).
T4 sequence (Q15761 whole entry): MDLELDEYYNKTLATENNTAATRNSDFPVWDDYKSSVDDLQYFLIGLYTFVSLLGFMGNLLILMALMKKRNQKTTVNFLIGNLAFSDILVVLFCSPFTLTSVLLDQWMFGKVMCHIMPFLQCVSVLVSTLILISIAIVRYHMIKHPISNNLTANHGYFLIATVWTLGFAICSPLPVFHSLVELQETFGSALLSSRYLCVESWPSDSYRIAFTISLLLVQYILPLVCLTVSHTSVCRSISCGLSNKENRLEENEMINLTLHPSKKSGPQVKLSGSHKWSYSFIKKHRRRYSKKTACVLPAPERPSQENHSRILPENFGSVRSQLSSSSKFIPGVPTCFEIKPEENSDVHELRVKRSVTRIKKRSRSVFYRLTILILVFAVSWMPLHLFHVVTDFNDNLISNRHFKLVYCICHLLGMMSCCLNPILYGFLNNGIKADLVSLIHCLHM
The assay can be described thus: Displacement of [3H]propionyl-pNPY from human Y5 receptor expressed in human HEC1B cells. It counts as cell-based.

Assay [10] is filed under the species Homo sapiens. The assay can be described thus: Selectivity ratio of Ki for displacement of [3H]propionyl-pNPY from human Y5 receptor expressed in human HEC1B cells to Ki for displacement of [3H]UR-KK200 from human Y4 receptor expressed in CHO cells co-expressing Gqi5-mtAEQ. It counts as cell-based.
In assay [11] the target is T1, Neuropeptide Y receptor type 4. Description: Antagonist activity at human Y4R expressed in HEK293T cells co-expressing ARRB1 assessed as inhibition of hPP-induced beta-arrestin1 recruitment by measuring rightward shifts of hPP concentration-response curves at 10 uM preincubated for 20 mins followed by hPP addition and measured for 40 mins by D-luciferin based luminescence assay relative to hPP. It counts as cell-based. The conditions noted are these: HEK-293T.

The target is the same in assay [12]. Description: Antagonist activity at human Y4 receptor expressed in CHO cells co-expressing Gqi5-mtAEQ assessed as inhibition of hPP-induced intracellular calcium mobilization at 10 uM preincubated for 15 mins followed by hPP addition and measured for 43 secs in presence of coelenterazine by aequorin-reporter gene based luminescence assay. It counts as functional, cell-based.

The target is the same in assay [13]. Description: Antagonist activity at human Y4 receptor expressed in CHO cells co-expressing Gqi5-mtAEQ assessed as inhibition of hPP-induced intracellular calcium mobilization by measuring rightward shifts of hPP concentration-response curves at 10 uM preincubated for 15 mins followed by hPP addition and …. It counts as functional, cell-based.
Assay [14] has the same target. Description: Antagonist activity at human Y4R expressed in HEK293T cells co-expressing ARRB1 assessed as inhibition of hPP-induced beta-arrestin1 recruitment at 10 uM preincubated for 20 mins followed by hPP addition and measured for 40 mins by D-luciferin based luminescence assay. As to conditions: HEK-293T. It counts as cell-based.

The term pKb denotes the negative decadic logarithm of the Kb, by convention in mol/L. Consider `CC(=O)N[C@@H](CCCNC(=N)N)C(=O)NC(CCCN)C(=O)N[C@@H](Cc1ccc(O)cc1)C(=O)N[C@@H](CCCNC(=N)N)C(=O)N[C@@H](Cc1c[nH]c2ccccc12)C(=O)N[C@@H](CCCNC(=N)N)C(=O)N[C@@H](Cc1ccc(O)cc1)C(N)=O` (stereo not given in full) (Ac-R[ξOrn]YRWRY-NH2), for which, in [1] (read-out: Ki), the Ki turned out to be 0.16 µM. Besides, the pKb worked out at 6.91 in assay [2], 5.87 in assay [3] and 6.22 in assay [4].
For Ac-RYRWRY-NH2, the figures for the Ki in assay [1] (read-out: Ki) and in [1] (read-out: pKi (converted)) were 0.097 µM and 0.0891 µM, respectively. Moreover, the pKb in [2] stood at 7.22; in assay [3] it was 6.85; in assay [4], 7.02.
On to Ac-RGYRWRY-NH2, for which the Ki in [1] (read-out: Ki) is 0.029 µM; in [5] (read-out: Ki), over 3 µM; in assay [5] (read-out: pKi (converted)), over 3.16 µM; in [7] (cho, read-out: Ki) it was over 10 µM; in assay [7] (read-out: pKi (converted)), over 10 µM; in assay [9] (read-out: Ki), over 3 µM. In addition, the Ki in assay [9] (read-out: pKi (converted)) was over 3.16 µM. For the same compound, the pKb in [2] turned out to be 7.57; in assay [3] it was 7.01; in [4], 6.96. In addition, the values for the Ratio Ki in the assay listed under Homo sapiens [6], in the assay listed under Homo sapiens [8] and in the assay listed under Homo sapiens [10] were over 340, over 100 and over 100, respectively.
Consider Ac-RGYRWRW-NH2, for which the values for the Ki in [1] (read-out: Ki) and in assay [1] (read-out: pKi (converted)) were 0.25 µM and 0.24 µM, respectively. In addition, the negative-log Kb (pKb) in [2] worked out at 6.46; in assay [3], 5.8; in [4], 6.1.
Consider H-RYRWRY-NH2, for which the Ki was 0.028 µM in assay [1] (read-out: Ki); 0.0269 µM in [1] (read-out: pKi (converted)); over 3 µM in assay [5] (read-out: Ki); over 3.16 µM in [5] (read-out: pKi (converted)); over 3 µM in [7] (read-out: Ki); over 3.16 µM in assay [7] (read-out: pKi (converted)). Besides, the Ki in assay [9] (read-out: Ki) and in [9] (read-out: pKi (converted)) was over 10 µM each time. For the same compound, the pKb is 7.32 in [2]; 7.05 in assay [12]; 6.87 in assay [3]; 7.14 in assay [4]; 6.63 in [14]. Besides, the fold change (FC) in assay [11] and in assay [13] was 2 in each case. Moreover, the figures for the Ratio Ki in the assay listed under Homo sapiens [6], in the assay listed under Homo sapiens [8] and in the assay listed under Homo sapiens [10] were over 110, over 110 and over 360, respectively.
